Legend:
Melanocortin receptor 4 [1] = target: T1, Melanocortin receptor 4 (Homo sapiens, UniProt P32245); experiment: Binding affinity towards human melanocortin 4 receptor expressed in HEK 293 cells using [125I]NDP-MSH; assay type: cell-based, HEK293
HEK293 [2] = experiment: Agonist activity in stimulation of cAMP accumulation in HEK 293 cells; conditions: Homo sapiens
Melanocortin receptor 3 = Melanocortin receptor 3 (Homo sapiens, UniProt P41968); experiment: Binding affinity for human melanocortin 3 receptor
Melanocortin receptor 5 = Melanocortin receptor 5 (Homo sapiens, UniProt P33032); experiment: Binding affinity for human melanocortin 5 receptor
Melanocortin receptor 4 [3] = target: T1, Melanocortin receptor 4; experiment: Inhibitory concentration against Melanocortin 4 receptor
HEK293 [4] = experiment: Inhibition of alpha-MSH-stimulated cAMP production at 10 uM in HEK cell line; assay type: functional; conditions: Homo sapiens

T1 sequence (P32245 whole entry): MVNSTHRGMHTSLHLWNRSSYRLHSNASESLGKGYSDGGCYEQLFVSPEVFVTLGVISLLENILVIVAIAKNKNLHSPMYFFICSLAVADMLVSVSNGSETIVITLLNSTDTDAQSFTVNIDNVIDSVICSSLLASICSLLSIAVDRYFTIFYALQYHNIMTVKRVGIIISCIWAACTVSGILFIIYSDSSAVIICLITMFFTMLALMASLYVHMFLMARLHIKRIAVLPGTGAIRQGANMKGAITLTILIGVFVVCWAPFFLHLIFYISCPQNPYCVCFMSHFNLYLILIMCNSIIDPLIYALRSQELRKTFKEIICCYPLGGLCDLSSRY
Chain of Melanocortin receptor 3 (P41968 whole entry): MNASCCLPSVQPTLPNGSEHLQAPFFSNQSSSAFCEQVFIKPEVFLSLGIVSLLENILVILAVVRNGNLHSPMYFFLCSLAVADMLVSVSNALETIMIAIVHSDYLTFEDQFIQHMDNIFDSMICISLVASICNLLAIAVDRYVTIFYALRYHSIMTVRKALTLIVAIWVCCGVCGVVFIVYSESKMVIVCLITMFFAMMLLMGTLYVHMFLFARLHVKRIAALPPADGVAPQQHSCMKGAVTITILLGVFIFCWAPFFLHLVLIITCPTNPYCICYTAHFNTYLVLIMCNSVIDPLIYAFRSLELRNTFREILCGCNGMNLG
Chain of Melanocortin receptor 5 (P33032 whole entry): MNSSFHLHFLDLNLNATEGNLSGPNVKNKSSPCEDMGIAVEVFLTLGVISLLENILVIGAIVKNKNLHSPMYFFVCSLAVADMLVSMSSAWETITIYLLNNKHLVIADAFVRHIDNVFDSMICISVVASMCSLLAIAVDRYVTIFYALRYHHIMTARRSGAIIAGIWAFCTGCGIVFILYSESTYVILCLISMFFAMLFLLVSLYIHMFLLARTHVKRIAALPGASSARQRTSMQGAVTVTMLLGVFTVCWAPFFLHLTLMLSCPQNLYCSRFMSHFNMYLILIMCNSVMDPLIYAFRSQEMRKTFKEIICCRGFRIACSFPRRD

SMILES | Ki (Melanocortin receptor 4 [1]) | EC50 (HEK293 [2]) | also measured
CC(NC1CCCNC1)c1ccccc1N1CCN(C(=O)[C@@H](Cc2ccc(Cl)cc2)NC(=O)C2(N)CCc3ccccc32)CC1 (some centres undefined) | 47 nM | – | –
O=C(N[C@H](Cc1ccc(Cl)cc1)C(=O)N1CCN(c2ccccc2CNCCN2CCOCC2)CC1)[C@H]1Cc2ccccc2CN1 | 120 nM | 570 nM | –
CC(C)COCCCNC(C)c1ccccc1N1CCN(C(=O)[C@@H](Cc2ccc(Cl)cc2)NC(=O)[C@H]2Cc3ccccc3CN2)CC1 (some centres undefined) | 41 nM | 560 nM | –
O=C(N[C@H](Cc1ccc(Cl)cc1)C(=O)N1CCN(c2ccccc2CNCCCn2ccnc2)CC1)[C@H]1Cc2ccccc2CN1 | 370 nM | 640 nM | –
CC(NC1CCCNC1)c1ccccc1N1CCN(C(=O)[C@@H](Cc2ccc(Cl)cc2)NC(=O)C(N)Cc2ccccn2)CC1 (some centres undefined) | 56 nM | 220 nM | –
CC(NC1CCCNC1)c1ccccc1N1CCN(C(=O)[C@@H](Cc2ccc(Cl)cc2)NC(=O)CC2NCCc3ccccc32)CC1 (some centres undefined) | 6.3 nM | 31 nM | Ki (Melanocortin receptor 3): 1900 nM
CC(NC1CCCNC1)c1ccccc1N1CCN(C(=O)[C@@H](Cc2ccc(Cl)cc2)NC(=O)C(N)c2ccccc2)CC1 (some centres undefined) | 34 nM | – | –
CCOC(=O)CN(C)Cc1ccccc1N1CCN(C(=O)[C@@H](Cc2ccc(Cl)cc2)NC(=O)[C@H]2Cc3ccccc3CN2)CC1 | 140 nM | 210 nM | –
CC(NC1CCCNC1)c1ccccc1N1CCN(C(=O)[C@@H](Cc2ccc(Cl)cc2)NC(=O)C(N)C2CCc3ccccc32)CC1 (some centres undefined) | 120 nM | 630 nM | –
O=C(N[C@H](Cc1ccc(Cl)cc1)C(=O)N1CCN(c2ccccc2CNc2ccncc2)CC1)[C@H]1Cc2ccccc2CN1 | 36 nM | 350 nM | –
CC(NC1CCCNC1)c1ccccc1N1CCN(C(=O)[C@@H](Cc2ccc(Cl)cc2)NC(=O)c2cnc3ccccc3c2)CC1 (some centres undefined) | 4.8 nM | – | Ki (Melanocortin receptor 5): 600 nM; IC50 (Melanocortin receptor 4 [3]): 300 nM; Ki (Melanocortin receptor 3): 630 nM; inhibition at 10 µM (HEK293 [4]): 38%
CC(NC1CCCNC1)c1ccccc1N1CCN(C(=O)[C@@H](Cc2ccc(Cl)cc2)NC(=O)Cc2ccccc2)CC1 (some centres undefined) | 30 nM | – | –
N[C@H]1CCCC[C@@H]1NCc1ccccc1N1CCN(C(=O)[C@@H](Cc2ccc(Cl)cc2)NC(=O)[C@H]2Cc3ccccc3CN2)CC1 | 89 nM | 390 nM | –
O=C(N[C@H](Cc1ccc(Cl)cc1)C(=O)N1CCN(c2ccccc2CN2CCOCC2)CC1)[C@H]1Cc2ccccc2CN1 | 53 nM | 360 nM | –
CN1CCN(Cc2ccccc2N2CCN(C(=O)[C@@H](Cc3ccc(Cl)cc3)NC(=O)[C@H]3Cc4ccccc4CN3)CC2)CC1 | 240 nM | 720 nM | –
O=C(N[C@H](Cc1ccc(Cl)cc1)C(=O)N1CCN(c2ccccc2CN2CCCNCC2)CC1)[C@H]1Cc2ccccc2CN1 | 78 nM | 210 nM | –
CN(C)CCC(=O)N[C@H](Cc1ccc(Cl)cc1)C(=O)N1CCC(Cn2cncn2)(C2CCCCC2)CC1 | – | 40 nM | –
O=C(N[C@H](Cc1ccc(Cl)cc1)C(=O)N1CCN(c2ccccc2CNCCCN2CCCC2=O)CC1)[C@H]1Cc2ccccc2CN1 | 270 nM | 360 nM | –
CC(NC1CCCNC1)c1ccccc1N1CCN(C(=O)[C@@H](Cc2ccc(Cl)cc2)NC(=O)[C@H]2Cc3ccccc3CN2)CC1 (some centres undefined) | – | 4.7 nM | –
CC(NC1CCCNC1)c1ccccc1N1CCN(C(=O)[C@@H](Cc2ccc(Cl)cc2)NC(=O)CCc2ccccc2)CC1 (some centres undefined) | 33 nM | – | –
CC(NC1CCCNC1)c1ccccc1N1CCN(C(=O)[C@@H](Cc2ccc(Cl)cc2)NC(=O)C(N)Cc2cccnc2)CC1 (some centres undefined) | 49 nM | – | –
CC(NCCN1CCOCC1)c1ccccc1N1CCN(C(=O)[C@@H](Cc2ccc(Cl)cc2)NC(=O)[C@H]2Cc3ccccc3CN2)CC1 (some centres undefined) | 87 nM | 230 nM | –
CC(NC1CCCNC1)c1ccccc1N1CCN(C(=O)[C@@H](Cc2ccc(Cl)cc2)NC(=O)C2(N)Cc3ccccc3C2)CC1 (some centres undefined) | 24 nM | 440 nM | –
O=C(N[C@H](Cc1ccc(Cl)cc1)C(=O)N1CCN(c2ccccc2CNCCc2cccs2)CC1)[C@H]1Cc2ccccc2CN1 | – | 360 nM | –
CC(C)COCCCNCc1ccccc1N1CCN(C(=O)[C@@H](Cc2ccc(Cl)cc2)NC(=O)[C@H]2Cc3ccccc3CN2)CC1 | 110 nM | 520 nM | –
CN(C)CCN(Cc1ccccc1)Cc1ccccc1N1CCN(C(=O)[C@@H](Cc2ccc(Cl)cc2)NC(=O)[C@H]2Cc3ccccc3CN2)CC1 | 22 nM | 550 nM | –
CC(NC1CCCNC1)c1ccccc1N1CCN(C(=O)[C@@H](Cc2ccc(Cl)cc2)NC(=O)C2(N)CCc3ccccc3C2)CC1 (some centres undefined) | 10 nM | 330 nM | –
CC(NC1CCCNC1)c1ccccc1N1CCN(C(=O)[C@@H](Cc2ccc(Cl)cc2)NC(=O)C(N)Cc2ccccc2)CC1 (some centres undefined) | 52 nM | 400 nM | –
O=C(N[C@H](Cc1ccc(Cl)cc1)C(=O)N1CCN(c2ccccc2CNCCCN2CCCCCC2)CC1)[C@H]1Cc2ccccc2CN1 | 160 nM | 570 nM | –

From ChEMBL document CHEMBL1144310, “Identification of agonists and antagonists of the human melanocortin-4 receptor from piperazinebenzylamines” (Bioorg Med Chem Lett, 2005)
